Here are results for one compound from patent US20160303040A1, “INJECTABLE PHARMACEUTICAL COMPOSITIONS COMPRISING PROSTACYCLIN” (RIGSHOSPITALET, priority 2013, published 2016).

SMILES strings stand for the structures.

The conditions of series [1]: cited from earlier work.
Series [2] is described as follows: 10 days short term stability study on iloprost standards diluted with isotonic sodium chloride. It is filed as physicochemical. Conditions: stored at 5° C., after dilution with isotonic sodium chloride solution. As for the experimental part: A: A concentration iloprost equal to 20 μg/ml (was used for the optimization of the HPLC procedure, UV 210 nm)
B: 0.9% sodium chloride in milliQ water (0.9 g NaCl in 100 ml water)
C: 100 μl of A and 900 μl of B: iloprost concentration equal to 2 μg/ml
A 10 days short term stability study was conducted on the standards The test solutions were prepared 11 May 2012 and analysed 11 May 2012, n=2, 15 May 2012, and 21 May 2012 and finally […]. Between the days of analysis the samples were stored at 5° C.

Turning to `CC#CCC(C)[C@H](O)/C=C/[C@@H]1[C@H]2C/C(=C/CCCC(=O)O)C[C@H]2C[C@H]1O` (stereo partly drawn) [Iloprost, 5-{(E)-(1S,5S,6R,7R)-7-hydroxy-6[(E)-(3S,4RS)-3-hydroxy-4-methyl-1-octen-6-inyl]-bi-cyclo[3.3.0]octan-3-ylidene}pentanoic acid], the solubility in water entry in series [1] is “very slightly soluble”. In addition, in series [2], the short term stability entry is reported as “No indication on major instability”.
